{
  "source": "patent US20260327263A1",
  "about": "“Anti-Bacterial Peptides” (priority 2023, published 2026)",
  "key": {"[1]": {"test_system": "mixed bacterial infection (PA, SA and ST)", "assay": "Broth microdilution, mixed bacterial infection", "type": "cell-based", "conditions": "mixed infection", "procedure": "Chronic wounds mostly present mixed infections where numerous pathogens colonize together.\nExamination of the potency of modified short peptides against PA and SA strains was performed by using the broth microdilution protocol from the Clinical and Laboratory Standards Institute (CLSI) guidelines (CLSI 2012) as described. Briefly, five freshly plated bacteria colonies were grown in cation adjusted MH2 broth (BD Biosciences) in a shaker incubator at 37° C., 220 RPM. Cells were grown to an optical density (OD600) of ~0.2 measured using a Microplate Spectrophotometer (Molecular Devices Spectra Max Plus). 100 μL of microbial culture containing ~5×10^5 CFU/mL of bacteria in the respective broths were introduced into each well containing 100 μL of peptides and incubated overnight at 37° C. Next, to check the bactericidal effects, 100 μL from each well was transferred and spread on sterile MH2 agar plates. The plates were incubated overnight at 37° C. and the number of colonies forming units (CFU) were calculated the following day. Readings of bacteria grown in media without any treatments were normalized to 100% as media control. For the mixed infection study, three freshly plated bacteria colonies each from PA, SA and ST plates were grown together in cation adjusted MH2 broth and proceeded as described above."}, "[2]": {"test_system": "Pseudomonas aeruginosa (PA)", "assay": "Time-kill assay, Pseudomonas aeruginosa", "type": "cell-based", "conditions": "for time to kill PA (in words): 1X MBC; for Time kill PA, >99% killing: at 1X MBC, * indicates killing within seconds", "procedure": "The bactericidal abilities of the variant peptides are not only effective, but also fast-acting. […] The killing kinetics are detailed in Table 11 below.\nPseudomonas aeruginosa (PA) and Staphylococcus aureus (SA) strains were grown as per CLSI guidelines. AMPs were added to the bacterial cultures at their 1X MBC concentrations. Upon treatment, the bacterial cultures were enumerated for viable counts immediately within 1 min, 5 min, 15 min, 30 min and 60 min post-treatments."}, "[3]": {"test_system": "Pseudomonas aeruginosa (PA)", "assay": "Live-dead staining of bacteria (membrane damage)", "type": "cell-based, Pseudomonas aeruginosa (ATCC 14213)", "procedure": "FIG. 2 verifies the effects of exemplary variant peptides in disrupting bacterial membranes. To test whether exemplary peptide E1AM2 causes membrane damage in bacteria, live and dead staining of exemplary bacteria strain Pseudomonas aeruginosa (ATCC 14213, PA) are performed in the presence of different concentrations of E1AM2 peptide. […] Scale bar-3 μm. The lesser number of PA cells observed upon E1AM2 treatment at these concentrations is due to leaking of the bacteria caused by membrane disruption. Thus, peptide variants with the cationic arm show bacterial membrane disrupting ability. FIG. 2B provides a quantification of Syto-9 and PI-positive Pseudomonas aeruginosa (PA) cells 24 hours post E1AM2 treatment.\nScale bar=3 μm. […] The percentage of PA cells with (PI-positive, red) and without (Syto-9 stained, green) membrane damage following E1AM2 V8LQ19L peptide treatment are shown.\nPA was treated with E1AM2 for 24 hours followed by live-dead saining in accordance to the manufacturers' instruction (LIVE/DEAD™ BacLight™ Bacterial Viability Kit, for microscopy & quantitative assays)."}, "Hemolysis assay": {"assay": "Hemolysis assay", "type": "cell-based, human", "conditions": "human, red blood cells; at respective MIC/MBC concentrations; melittin 3.125 μM = 100%", "procedure": "The hemolytic score of the peptide variants and pexiganan (SEQ ID NO: 54) are compared to a strong hemolytic peptide, melittin 12 as a control. […] The minimum peptide concentration corresponding to 10% hemolysis (minimal hemolysis concentration, HC) of E1AM2=50 μM, V8LQ19L=12.5 μM, V8LQ19L C-2=3.125 μM, and pexiganan=12.5 μM respectively. Readings of the melittin at 3.125 μM were normalised to 100%.\nExamination of hemolytic activity of ultra-short peptides was performed by isolating the red blood cells (RBCs) from human blood samples by centrifugation (1000 g, 4° C., 10 min) and resuspension in 27 mL PBS. This washing step was repeated four times before the RBCs were diluted to a 10% (v/v) suspension. […] Hemolytic properties of E1AM2 and pexiganan were evaluated with melittin used as a positive control, and PBS as a negative control. The plates were incubated at 37° C., for 30 min and then centrifuged (1258 g, 4° C., 6 min). 75 μL of supernatant were transferred into a flat-bottom clear 96-well plate and the OD576 nm was read. Readings of the melittin sample at 3.125 μM were normalized to 100%."}, "[4]": {"test_system": "human keratinocytes (HaCaT)", "assay": "Cell proliferation assay, HaCaT keratinocytes", "type": "cell-based", "procedure": "Wound closure was compared with the untreated samples (circle, red highlight). For improved clarity, error bars have been omitted from this representation. […] Each value is the mean±SD (n=3). Statistical significance was assessed using ANOVA for multiple comparisons (Dunnett's multiple comparisons test). **** p<0.0001, *** p<0.001, ** p<0.01, *p<0.05, ns denotes nonsignificance, p >0.05.\nCyQUANT™ Direct Cell Proliferation Assay (ThermoFisher Scientific, Catalogue) was performed as per manufacturer's instructions to determine the safety of the peptides to human keratinocytes. […] The fluorescence intensity and number of stained cells were determined using the LionHeart FX Automated Microscope (BioTek, VT, USA)."}, "bacteria [5]": {"test_system": "bacteria", "assay": "Comparison of wild-type peptide E1A to V8LQ19L (Table 14)", "text": "Active peptide sequences based on ENO3 exerting significant bactericidal antibiofilm properties, and relevant to chronic wound healing are previously disclosed. The previously disclosed antimicrobial peptides (AMPs) are longer (>22-residues) in length, which would be more costly in production."}, "[6]": {"test_system": "Pseudomonas aeruginosa (PA)", "assay": "Broth microdilution anti-bacterial assay (CLSI), Pseudomonas aeruginosa", "type": "cell-based, Pseudomonas aeruginosa (ATCC 14213)", "conditions": "PA; for MIC: overnight, 37° C., ≥99% inhibition; for MBC: ≥99% killing"}, "bacteria [7]": {"test_system": "bacteria", "assay": "Comparison of lead peptide to standard of care (Table 16)"}, "fibroblasts (HFF-1)": {"test_system": "fibroblasts (HFF-1)", "assay": "Cell proliferation assay, HFF-1 fibroblasts", "type": "cell-based", "conditions": "24 h"}},
  "note": "Several values for one entry are separate records, joined by “and”; a condition that tells them apart may be missing. Equal entries are not always repeated. Where no end group is shown, it is not given here.",
  "data": [
    {"substance": "E1AM2: untagged (E1AM2), KKLLKKWVKLSKKALKLAQSL", "values": [
      {"measurement": "MBC", "setting": "[1]", "value": 6.25, "unit": "µM"},
      {"measurement": "time to kill PA (in words)", "setting": "[2]", "value": "within minutes"},
      {"measurement": "Time kill PA, >99% killing", "setting": "[2]", "value": 1, "unit": "min"},
      {"measurement": "incorporation of propidium iodide (PI), membrane damage", "setting": "[3]; at 1× MIC (3.125 μM) and 1X MBC (6.25 μM), 24 h", "value": 100, "unit": "%"}
    ]},
    {"substance": "KKLLKKWLKLSKKALKLALSL-NH2 [V8LQ19L]", "values": [
      {"measurement": "hemolysis at 0.5 h", "setting": "Hemolysis assay", "value": "~0", "unit": "%"},
      {"measurement": "Cytotoxicity at high concentration (100 μM)", "setting": "[4]; 100 μM, cell line not named in Table 15", "value": "Non-cytotoxic"},
      {"measurement": "cytotoxicity to HaCaT", "setting": "[4]; 24 h, up to highest tested concentrations (peptide), 3% (H2O2)", "value": "noncytotoxic"},
      {"measurement": "Cationicity", "setting": "bacteria [5]", "value": "Cationic (bacterial membrane"},
      {"measurement": "Mechanism of killing bacteria", "setting": "bacteria [5]", "value": "Membrane disintegration"},
      {"measurement": "MIC/MBC", "setting": "bacteria [5]; bacteria not named in Table 14", "value": 1.56, "unit": "µM"},
      {"measurement": "MIC", "setting": "[6]", "value": 1.56, "unit": "µM"},
      {"measurement": "MIC", "setting": "[6]; listed as VBLQ19L", "value": 1.58, "unit": "µM"},
      {"measurement": "MBC", "setting": "[6]", "value": 1.56, "unit": "µM"},
      {"measurement": "MBC", "setting": "[6]; listed as VBLQ19L", "value": "1.58 µM and 1.56 µM"},
      {"measurement": "time to kill PA (in words)", "setting": "[2]", "value": "within seconds"},
      {"measurement": "Time kill PA, >99% killing", "setting": "[2]", "value": "1* min"},
      {"measurement": "mechanism of bacterial killing (live/dead)", "setting": "[3]; FIG. 12", "value": "primarily through membrane damage"},
      {"measurement": "AMR Prevention", "setting": "bacteria [7]", "value": "Yes"},
      {"measurement": "Negligible Cytotoxicity", "setting": "bacteria [7]", "value": "Yes"},
      {"measurement": "No Allergic/Adverse Reactions", "setting": "bacteria [7]", "value": "Yes"},
      {"measurement": "Targeted bacteria-specific eradication", "setting": "bacteria [7]", "value": "Yes"},
      {"measurement": "Wound Healing Support", "setting": "bacteria [7]", "value": "Yes"},
      {"measurement": "Antibacterial Efficacy", "setting": "bacteria [7]; Broad- (spectrum continues on next line)", "value": "Broad-"},
      {"measurement": "HFF-1 proliferation", "setting": "fibroblasts (HFF-1); certain concentrations", "value": "enhanced proliferation"},
      {"measurement": "cytotoxicity to HFF-1", "setting": "fibroblasts (HFF-1); up to highest tested concentrations (peptide), 3% (H2O2)", "value": "noncytotoxic"}
    ]}
  ]
}
